In brackets after ≈: the same amount, converted by molar mass.
Assays:
[1] = Aqueous solubility of the compound; type: physicochemical; conditions: buffer
[2] = Metabolic stability in mouse liver microsomes assessed as half life; type: ADME, Microsome

Question: Which results are given for `Cn1ccc2cccc(COc3cccc(-c4c(Cc5ccccc5)nnc5c(C(F)(F)F)cccc45)c3)c21`?
Answer: solubility [1]: 2 µg/mL (≈ 3.82 µM); half-life [2]: < 5 min

From ChEMBL document CHEMBL1151902, “Discovery and SAR of cinnolines/quinolines as liver X receptor (LXR) agonists with binding selectivity for LXRbeta” (Bioorg Med Chem, 2009)
